Counter-ions that a name gives are not always drawn.
Biological target: Glycogen synthase kinase-3 beta (Homo sapiens, UniProt P49841)
Assay: concentration-response blocking of human GSK3B – biochemical, luminescence, cell-free homogeneous, retest, dose response (AID 434954)

Glycogen synthase kinase-3 beta, sequence (P49841 whole entry): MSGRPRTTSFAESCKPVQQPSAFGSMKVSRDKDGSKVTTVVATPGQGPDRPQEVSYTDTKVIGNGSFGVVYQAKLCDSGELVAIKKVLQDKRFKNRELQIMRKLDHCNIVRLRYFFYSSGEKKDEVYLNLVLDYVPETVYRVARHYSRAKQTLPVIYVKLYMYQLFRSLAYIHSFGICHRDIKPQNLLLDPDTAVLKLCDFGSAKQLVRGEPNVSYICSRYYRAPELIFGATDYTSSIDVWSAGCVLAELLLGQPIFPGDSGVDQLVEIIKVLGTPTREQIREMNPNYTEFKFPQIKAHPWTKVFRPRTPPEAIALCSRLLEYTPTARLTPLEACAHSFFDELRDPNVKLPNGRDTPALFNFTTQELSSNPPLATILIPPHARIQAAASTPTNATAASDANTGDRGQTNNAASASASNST

Row | SMILES | EC50
1 | O=S(=O)(NCCC1CC1(Cl)Cl)c1ccc(Cl)cc1 (stereo not given) [N1-[2-(2,2-dichlorocyclopropyl)ethyl]-4-chlorobenzene-1-sulfonamide] | > 300 µM
2 | CCc1c(C)c2ccc(O)c(CN(C)C)c2oc1=O [8-[(dimethylamino)methyl]-3-ethyl-4-methyl-7-oxidanyl-chromen-2-one] | > 300 µM
3 | CCCn1nc(NC(=O)c2cccs2)c2cc3cc(OC)ccc3nc21 [N-(6-methoxy-1-propyl-3-pyrazolo[3,4-b]quinolinyl)-2-thiophenecarboxamide] | 44.5 µM
4 | O=NCc1cn(-c2ccccc2)nc1-c1cccnc1 [N-[(1-phenyl-3-pyridin-3-ylpyrazol-4-yl)methylidene]hydroxylamine] | 6.45 µM
5 | COc1ccccc1/C=C/C=C1\Oc2c(ccc(O)c2CN2CCN(CCO)CC2)C1=O [(2Z)-7-[[4-(2-hydroxyethyl)piperazin-1-yl]methyl]-2-[(E)-3-(2-methoxyphenyl)prop-2-enylidene]-6-oxidanyl-1-benzofuran-3-one] | > 300 µM
6 | Cc1ccccc1NC(=O)Nc1ccccn1 [1-(2-methylphenyl)-3-pyridin-2-ylurea] | > 300 µM
7 | CCNc1nc(N)nc(-c2cc(Cl)ccc2O)n1 [(6E)-6-[6-amino-4-(ethylamino)-1H-1,3,5-triazin-2-ylidene]-4-chloro-1-cyclohexa-2,4-dienone] | 3.56 µM
8 | CCOc1ccccc1C=NNC(=O)c1nnn(-c2nonc2N)c1CN1CCCC1 [1-(4-amino-1,2,5-oxadiazol-3-yl)-N-[(2-ethoxyphenyl)methylideneamino]-5-(pyrrolidin-1-ylmethyl)triazole-4-carboxamide] | 1.06 µM
9 | Cc1ccc(S(=O)(=O)N/C(=N/C(C)C(=O)O)c2ccccc2)cc1 (stereo not given) [MLS000108658] | > 300 µM
10 | CC(C)(C)c1ccc(OCC(=O)NCCN2CCCC2)cc1 [2-(4-tert-butylphenoxy)-N-(2-pyrrolidin-1-ylethyl)ethanamide;hydrochloride] | > 300 µM
11 | CN(C)Cc1c(O)ccc2c3c(c(=O)oc12)CCCCC3 [4-Dimethylaminomethyl-3-hydroxy-8,9,10,11-tetrahydro-7H-cyclohepta[c]chromen-6-one] | 78.8 µM
12 | CCC(C)NCCOCCOc1ccc(Cl)cc1Br (stereo not given) [N-[2-[2-(2-bromo-4-chlorophenoxy)ethoxy]ethyl]-2-butanamine;oxalic acid] | > 300 µM
13 | Cc1ccc2c(c1)C1CN(C)CCC1N2C(=O)Nc1cccc(Cl)c1 (stereo not given) [MLS000565326] | > 300 µM
14 | CC(C)=CCc1c(O)cc2c(=O)c3ccc(O)cc3oc2c1O [SMR000470963] | > 300 µM
15 | O=C(Nc1ccc(O)c2c(=O)cc(-c3ccccc3Cl)oc12)c1ccccc1Cl | > 300 µM
16 | Cc1cc(NC(=O)CCN2CCC(C)CC2)ccc1Br [N-(4-bromo-3-methylphenyl)-3-(4-methyl-1-piperidinyl)propanamide;hydrochloride] | > 300 µM
17 | Cc1c(Br)c([N+](=O)[O-])nn1CC(=O)Nc1c(C)n(C)n(-c2ccccc2)c1=O [2-(4-Bromo-5-methyl-3-nitro-pyrazol-1-yl)-N-(1,5-dimethyl-3-oxo-2-phenyl-2,3-dihydro-1H-pyrazol-4-yl)-acetamide] | > 300 µM
18 | CC(=O)Nc1ccc(S(=O)(=O)NCc2ccc(C)n2C)cc1 [N-[4-[(1,5-dimethylpyrrol-2-yl)methylsulfamoyl]phenyl]ethanamide] | > 300 µM
19 | CC[n+]1c(/C=C/C=C/c2ccc(N(C)C)cc2)sc2ccccc21 [SMR000420206] | 35.1 µM
20 | O=C(NCc1ccco1)C(=O)c1cn(CC(=O)N2CCCC2)c2ccccc12 [N-(furan-2-ylmethyl)-2-oxidanylidene-2-[1-(2-oxidanylidene-2-pyrrolidin-1-yl-ethyl)indol-3-yl]ethanamide] | > 300 µM
21 | CSc1nc(SCC(=O)NCC2CCCO2)c2c3c(sc2n1)CN(C)CC3 (stereo not given) [2-[(7-methyl-2-methylsulfanyl-6,8-dihydro-5H-pyrido[2,3]thieno[2,4-b]pyrimidin-4-yl)sulfanyl]-N-(oxolan-2-ylmethyl)ethanamide] | 22.8 µM
22 | CCn1c(SCC(=O)Nc2ccc(NC(C)=O)cc2)nnc1C1CC1 [N-(4-acetamidophenyl)-2-[(5-cyclopropyl-4-ethyl-1,2,4-triazol-3-yl)sulfanyl]ethanamide] | > 300 µM
23 | CCc1ccccc1-n1c(O)cc(N2CCc3ccccc32)c1O [SMR000285101] | > 300 µM
24 | CCCn1nc(NC(=O)C(C)(C)C)c2cc3cc(OC)ccc3nc21 [N-(6-methoxy-1-propylpyrazolo[3,4-b]quinolin-3-yl)-2,2-dimethylpropanamide] | 63.8 µM
25 | Cc1ccc(C)c(S(=O)(=O)N2CCN(C(C(=O)Nc3ccc(F)cc3)c3ccccc3)CC2)c1 (stereo not given) [2-[4-(2,5-dimethylphenyl)sulfonyl-1-piperazinyl]-N-(4-fluorophenyl)-2-phenylacetamide] | > 300 µM
26 | COc1ccc(C(=O)NCC(=O)NN=Cc2ccc(C)o2)cc1OC [3,4-dimethoxy-N-(2-{2-[(5-methyl-2-furyl)methylene]hydrazino}-2-oxoethyl)benzamide] | > 300 µM
27 | CCCC(=O)Nc1nn(CC(C)C)c2nc3cc(C)ccc3cc12 [SMR000540561] | > 300 µM
28 | COc1ccc2nc(NC(=O)CSc3nnc(N)[nH]3)sc2c1 [MLS001138435] | 3.11 µM
29 | O=Cc1ccc(N2CCCC2)c([N+](=O)[O-])c1 [SMR000383989] | > 300 µM
30 | COC(=O)c1cccc(Nc2nc(-c3ccncc3)nc3ccccc23)c1 [MLS001163930] | > 300 µM

Now from value to compound:

Row | EC50 | SMILES
31 | > 300 µM | COC(=O)c1ccc(O)cc1
32 | > 300 µM | CC1=C(C(=O)Nc2ccccc2F)C(c2cccs2)C2C(=O)CCCC2=N1 (stereo not given)
33 | 27.5 µM | CN(C)Cc1ccc(-c2nc3cccc4c3n2CCNC4=O)cc1
34 | > 300 µM | CCOC(=O)c1c(-c2ccc(C)o2)csc1N
35 | > 300 µM | CC(C)n1cnc2c(Nc3cccc(Cl)c3)nc(NCCCO)nc21
36 | > 300 µM | CCOc1ccc(/C=C2\CCCc3c2nc2ccccc2c3C(=O)O)cc1OC [SMR000688807]
37 | 29.1 µM | c1ccc2c(CSc3nnc(-c4ccncc4)o3)cccc2c1 [2-(naphthalen-1-ylmethylsulfanyl)-5-pyridin-4-yl-1,3,4-oxadiazole]
38 | > 300 µM | c1ccc(Nc2nc(NCCN3CCOCC3)nc(Nc3ccccc3)n2)cc1
39 | > 300 µM | O=C(Nc1cccc2c1C(=O)NC2=O)c1cccnc1Cl [N-[1,3-bis(oxidanylidene)isoindol-4-yl]-2-chloranyl-pyridine-3-carboxamide]
40 | 9.17 µM | CCN(CC)Cc1c(C(=O)NN=Cc2cccnc2)nnn1-c1nonc1N [1-(4-amino-1,2,5-oxadiazol-3-yl)-5-(diethylaminomethyl)-N-(3-pyridinylmethylideneamino)-4-triazolecarboxamide]
41 | > 300 µM | Nc1nonc1-n1nnc(C(=O)NN=Cc2ccc(Cl)cc2Cl)c1CN1CCCC1 [1-(4-azanyl-1,2,5-oxadiazol-3-yl)-N-[(2,4-dichlorophenyl)methylideneamino]-5-(pyrrolidin-1-ylmethyl)-1,2,3-triazole-4-carboxamide]
42 | > 300 µM | COc1ccc(-c2nn(-c3ccccc3)cc2C#N)cc1 [3-(4-methoxyphenyl)-1-phenyl-4-pyrazolecarbonitrile]
43 | > 300 µM | COc1cccc(C2C3=C(CC(C)(C)CC3=O)N=C(C)C2C#N)c1 (stereo not given) [4-(3-methoxyphenyl)-2,7,7-trimethyl-5-oxo-1,4,5,6,7,8-hexahydro-3-quinolinecarbonitrile]
44 | > 300 µM | CC1=NC(=O)NC(c2ccc(O)cc2)C1C(=O)OCC1CCCO1 (stereo not given)
45 | > 300 µM | COc1ccc2nc(Cl)cc(Cl)c2c1 [SMR000430028]

— BindingDB's records for doi:10.7270/Q2TX3CTT (Broad Institute, 2010)
